Source: patent US10617671B2, “Use of NK-1 receptor antagonist serlopitant in pruritus” (Menlo Therapeutics Inc., priority 2013, dated 2020)

Tests used:
[1] = test system: patients with liver and kidney disease; conditions: cited from earlier work
patients with OAB = conditions: cited from earlier work
[2] = test system: patients suffering from chronic pruritus; conditions: single topical dose, 5% in a lipophilic vehicle; cited from earlier work
CYP3A4 = CYP3A4 (Homo sapiens, UniProt P08684); conditions: cited from earlier work
[3] = test system: patients with Sézary syndrome; conditions: oral, 80 mg daily, three patients with Sézary syndrome; cited from earlier work
[4] = test system: patients with chronic pruritus; design: patients with considerable reduction in itch intensity: unit not given here; conditions: 80 mg daily for 3 to 13 days, cited from earlier work
CYP2C9 = CYP2C9 (Homo sapiens, UniProt P11712); conditions: cited from earlier work
[5] = itch; cited from earlier work
CYP-3A4 mRNA = conditions: three individual preparations of human hepatocytes; cited from earlier work
[6] = test system: cloned human NK-2 and NK-3 receptors; conditions: CHO cells stably expressing the respective receptors; cited from earlier work
[7] = Solubility of Compound 1 in solvents; type: physicochemical
Text: S-BTBA ((S)-1-[3,5-bis(trifluoromethyl)] phenylethanol)) (12) is reacted with trichloroacetonitrile (Sigma-Aldrich) in the presence of base 1,8-diazabicycloundec-7-ene (DBU) to produce imidate (13). HBF4 is used to catalyze the reaction of (11) with (13) to yield ether (14). Treatment with allylamine and bis-propylsulfonate cyclizes (14) to allylamine-protected pyrrolidine (15). Removal of the allyl protecting group with thiosalicylic acid and 1,4-bis(diphenylphosphino)butane (dppb), followed by […] (Pd2(dba)3) and isolation with acetic acid gives crystalline (16). Finally, (16) is reacted with 1,3-cyclopentanedione (Sigma-Aldrich) in isopropyl alcohol to give Compound 1. Compound 1 is a white to off-white powder.

[8] = In vitro skin permeation, Franz diffusion cell; type: in vitro ADME; conditions: topical formulations B and C, LC-MS/MS, human skin, 37° C.
Protocol: In vitro skin permeation of serlopitant in topical formulations A-D was evaluated using a Franz diffusion cell. FIG. 2 illustrates a Franz diffusion cell. A Franz diffusion cell having a circular permeation area of 4.15 cm^2 and a receptor chamber volume of 19 mL was set up with a thermo-regulated outer water jacket to maintain the temperature at 37° C. The receptor chamber was filled with 19 mL 1×PBS (pH 7.5) containing 10% ethanol and 1% Tween® 80.
Human skin was pretreated to remove all subcutaneous fat and was cleaned with 70% ethanol before use. The skin was visually inspected to ensure that it was free of any surface irregularity or small holes and was equally divided into four pieces. The skin was then mounted onto the receptor chamber with the stratum corneum side facing up. About 100 mg of topical formulation A, B, C or D was applied to the skin (actual weight: A, 103.8 mg; B, 101.3 mg; C, 103.2 mg; and D, 103.8 mg), which was then covered with parafilm to avoid evaporation. […]
All samples were processed by solid-phase extraction (SPE) before LC-MS/MS analysis. […] Serlopitant concentrations in samples resulting from formulations A-D were determined by comparison to the standard. Serlopitant was not detected in samples resulting from topical formulations A and D, as expected. […] After an initial lag, serlopitant was detected by LC-MS/MS in the receptor chamber at 6 hours.

[9] = Solubility test in Franz cell receptor solution; type: physicochemical
human NK-1 receptor = human NK-1 receptor (Homo sapiens, UniProt P25103); conditions: cited from earlier work
NCNga mice = conditions: picrylchloride-induced dermatitis; cited from earlier work

Sequence of human NK-1 receptor (P25103 whole entry): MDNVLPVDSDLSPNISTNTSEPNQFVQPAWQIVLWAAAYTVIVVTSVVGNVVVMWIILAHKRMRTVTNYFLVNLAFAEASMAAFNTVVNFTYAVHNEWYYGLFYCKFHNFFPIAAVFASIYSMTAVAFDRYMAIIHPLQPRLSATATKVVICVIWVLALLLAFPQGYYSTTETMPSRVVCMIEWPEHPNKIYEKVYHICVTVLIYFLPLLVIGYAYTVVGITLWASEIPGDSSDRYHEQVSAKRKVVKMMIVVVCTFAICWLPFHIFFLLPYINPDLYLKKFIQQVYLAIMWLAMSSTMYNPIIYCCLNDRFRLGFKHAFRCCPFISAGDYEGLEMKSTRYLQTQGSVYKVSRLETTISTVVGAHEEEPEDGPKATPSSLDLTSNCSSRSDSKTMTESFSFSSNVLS
Sequence of CYP3A4 (P08684 whole entry): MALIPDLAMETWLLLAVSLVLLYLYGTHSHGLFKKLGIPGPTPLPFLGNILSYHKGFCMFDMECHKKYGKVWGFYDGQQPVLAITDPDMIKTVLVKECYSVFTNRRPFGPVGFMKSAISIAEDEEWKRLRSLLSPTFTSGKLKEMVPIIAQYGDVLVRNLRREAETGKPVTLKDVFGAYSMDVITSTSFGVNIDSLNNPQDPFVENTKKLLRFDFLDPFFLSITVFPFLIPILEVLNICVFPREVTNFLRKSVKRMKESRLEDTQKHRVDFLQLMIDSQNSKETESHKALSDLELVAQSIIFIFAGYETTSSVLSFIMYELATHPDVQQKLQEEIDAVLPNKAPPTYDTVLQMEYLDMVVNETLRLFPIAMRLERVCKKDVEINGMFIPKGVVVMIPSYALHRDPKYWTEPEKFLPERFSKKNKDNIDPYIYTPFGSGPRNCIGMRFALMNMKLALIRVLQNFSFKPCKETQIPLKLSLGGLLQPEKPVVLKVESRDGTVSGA
Sequence of CYP2C9 (P11712 whole entry): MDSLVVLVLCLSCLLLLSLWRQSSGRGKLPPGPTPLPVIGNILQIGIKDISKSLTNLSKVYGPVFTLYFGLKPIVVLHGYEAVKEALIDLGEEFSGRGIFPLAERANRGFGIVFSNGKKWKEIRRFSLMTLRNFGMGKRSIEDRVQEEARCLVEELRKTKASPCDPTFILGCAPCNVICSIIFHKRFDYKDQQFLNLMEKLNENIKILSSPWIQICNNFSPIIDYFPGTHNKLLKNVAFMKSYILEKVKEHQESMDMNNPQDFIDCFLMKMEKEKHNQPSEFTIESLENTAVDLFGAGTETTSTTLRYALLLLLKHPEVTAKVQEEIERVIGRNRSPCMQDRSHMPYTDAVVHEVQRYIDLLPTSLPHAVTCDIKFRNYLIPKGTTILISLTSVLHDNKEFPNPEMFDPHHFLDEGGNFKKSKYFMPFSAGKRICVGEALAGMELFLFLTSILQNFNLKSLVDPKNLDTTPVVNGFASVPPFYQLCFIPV

In the case of `C=C1CC[C@@]2(O)[C@H]3Cc4ccc(O)c5c4[C@@]2(CCN3CC2CC2)[C@H]1O5` [nalmefene], the “effect on pruritus symptoms” value [1] is listed as “decreased pruritus symptoms” and the side effects [1] is listed as “significant central nervous and gastrointestinal side effects occurred”.

For `O=C1CC[C@@]2(O)[C@H]3Cc4ccc(O)c5c4[C@@]2(CCN3CC2CC2)[C@H]1O5` [naltrexone], the “effect on pruritus symptoms” value [1] is given as “decreased pruritus symptoms” and the side effects [1] is given as “significant central nervous and gastrointestinal side effects occurred”.

For `Cc1ccc(O)c([C@H](CCN(C(C)C)C(C)C)c2ccccc2)c1` [tolterodine, reference compound], the “adverse experience of dry mouth” value (patients with OAB) is listed as “common”, the “efficacy compared with placebo” value (patients with OAB) is listed as “statistically significantly more effective” and the “efficacy compared with serlopitant at all efficacy end points” value (patients with OAB) is listed as “numerically more effective”.

In the case of `C=CCN1CC[C@]23c4c5ccc(O)c4O[C@H]2C(=O)CC[C@@]3(O)[C@H]1C5` [naloxone], the “effect on pruritus symptoms” value [1] is listed as “decreased pruritus symptoms” and the side effects [1] is listed as “significant central nervous and gastrointestinal side effects occurred”.

In the case of `C[C@@H](O[C@H]1OCCN(Cc2n[nH]c(=O)[nH]2)[C@H]1c1ccc(F)cc1)c1cc(C(F)(F)F)cc(C(F)(F)F)c1` [aprepitant], the “absorption into the skin” value [2] is given as “absorbed into the skin”, the “effect on patients' itch” value [2] is given as “not alleviated” and the “inhibition and induction of CYP3A4” value (CYP3A4) is given as “moderate inhibitor as well as an inducer”. For the same compound, the treatment of pruritus [3] was “had utility in treating pruritus”, the “effect on chronic pruritus” value ([4]; atopic diathesis, prurigo nodularis) was “significantly decreased chronic pruritus” and the “patients with considerable reduction in itch intensity” value ([4]; twenty patients) was “Eighty”. The “inhibition and induction of CYP2C9” value (CYP2C9) was “moderate inhibitor as well as an inducer”.

For `NCC1(CC(=O)O)CCCCC1` [gabapentin], the onset of action [5] is given as 5-6 weeks.

In the case of `C[C@@H](O[C@H]1CC[C@@H]2CN(C3=CC(=O)CC3)C[C@H]2[C@@H]1c1ccc(F)cc1)c1cc(C(F)(F)F)cc(C(F)(F)F)c1` [Compound 1, 3-[(3aR,4R,5S,7aS)-5-[(1R)-1-[3,5-bis(trifluoromethyl)phenyl]ethoxy]-4-(4-fluorophenyl)-1,3,3a,4,5,6,7,7a-octahydroisoindol-2-yl]cyclopent-2-en-1-one], the “induction of CYP-3A4 mRNA” value (CYP-3A4 mRNA) is given as “did not significantly induce”, the “selectivity for NK-1 over NK-2 and NK-3 receptors” value [6] is given as > 39,000 fold and the solubility ([7]; acetonitrile) is given as “sparingly soluble”. For the same compound, the solubility ([7]; ethanol) was “soluble”, the solubility ([7]; ethyl acetate) was “sparingly soluble” and the solubility ([7]; isopropyl acetate) was “slightly soluble”. For the same compound, the solubility ([7]; isopropyl alcohol) was “sparingly soluble”, the solubility ([7]; methanol) was “freely soluble” and the solubility ([7]; water) was “insoluble”. For the same compound, the “time at which serlopitant was detected in the receptor chamber after initial lag” value [8] was 6 h, the “number of daily micturitions compared with placebo” value (patients with OAB; 0.25 and 4 mg daily) was “significantly reduced” and the “adverse experience of dry mouth” value (patients with OAB) was “not associated”. For the same compound, the “dose response relationship with micturition frequency” value (patients with OAB) was “did not show a dose response relationship”, the “drug-related serious adverse experiences” value (patients with OAB) was “no drug-related serious adverse experiences” and the “secondary efficacy end points: urinary urgency, urge incontinence and total incontinence” value (patients with OAB) was “did not significantly influence”. For the same compound, the tolerability (patients with OAB) was “generally well tolerated”, the “solubility in receptor solution” value ([9]; 0.5, 5 and 50 ug/mL in 1xPBS (pH 7.5) with 10% ethanol and 1% Tween 80, 1 hour at 37° C.) was “remained soluble” and the “solubility change if Tween 80 was not used” value ([9]; 1xPBS (pH 7.5), 37° C.) was “decreased significantly”. The “solubility change if ethanol was not used” value ([9]; 1xPBS (pH 7.5), 37° C.) was “decreased slightly”, the IC50 (human NK-1 receptor; read-out: IC50, displacement of substance P binding) was 0.061 nM and the Kd (human NK-1 receptor; read-out: Kd, binding to the human NK-1 receptor) was 0.046 nM.

For `CN(CCc1cc(C(F)(F)F)cc(C(F)(F)F)c1)C(=O)[C@H](c1ccccc1)N1CCN(CC2CC2)CC1` [BIIF 1149 CL], the scratching behavior (NCNga mice) is given as “inhibited scratching behavior”.
